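Growth conditions: 96-well plates. Treatment: test compound, 48 hours, 5 concentrations. Analysis: linear interpolation between bracketing concentrations; unreached endpoints set to highest concentration. TGI marks complete inhibition of growth.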
What was measured:
Test in all cases: NCI tumour cell line growth inhibition, 48 h
786-0 renal = test system: 786-0 renal
A549 NSCLC = test system: A549 NSCLC
CCRF-CEM leukemia = test system: CCRF-CEM leukemia
COLO 205 colon = test system: COLO 205 colon
DLD-1 colon = test system: DLD-1 colon
DMS 114 small cell lung = test system: DMS 114 small cell lung
DMS 273 small cell lung = test system: DMS 273 small cell lung
EKVX NSCLC = test system: EKVX NSCLC
HCC-2998 colon = test system: HCC-2998 colon
HCT-116 colon = test system: HCT-116 colon
HL-60(TB) leukemia = test system: HL-60(TB) leukemia
HOP-62 NSCLC = test system: HOP-62 NSCLC
HOP-92 NSCLC = test system: HOP-92 NSCLC
HT29 colon = test system: HT29 colon
IGROV1 ovarian = test system: IGROV1 ovarian
K-562 leukemia = test system: K-562 leukemia
KM12 colon = test system: KM12 colon
KM20L2 colon = test system: KM20L2 colon
LOX IMVI melanoma = test system: LOX IMVI melanoma
LXFL 529 NSCLC = test system: LXFL 529 NSCLC
M14 melanoma = test system: M14 melanoma
M19-MEL melanoma = test system: M19-MEL melanoma
MALME-3M melanoma = test system: MALME-3M melanoma
MOLT-4 leukemia = test system: MOLT-4 leukemia
NCI-H226 lung = test system: NCI-H226 lung
NCI-H23 lung = test system: NCI-H23 lung
NCI-H460 lung = test system: NCI-H460 lung
NCI-H522 lung = test system: NCI-H522 lung
OVCAR-3 ovarian = test system: OVCAR-3 ovarian
OVCAR-5 ovarian = test system: OVCAR-5 ovarian
OVCAR-8 ovarian = test system: OVCAR-8 ovarian
RPMI-8226 leukemia = test system: RPMI-8226 leukemia
RXF 393 renal = test system: RXF 393 renal
RXF-631 renal = test system: RXF-631 renal
SF-268 CNS = test system: SF-268 CNS
SF-295 CNS = test system: SF-295 CNS
SF-539 CNS = test system: SF-539 CNS
SK-MEL-2 melanoma = test system: SK-MEL-2 melanoma
SK-MEL-28 melanoma = test system: SK-MEL-28 melanoma
SK-MEL-5 melanoma = test system: SK-MEL-5 melanoma
SK-OV-3 ovarian = test system: SK-OV-3 ovarian
SNB-75 CNS = test system: SNB-75 CNS
SNB-78 CNS = test system: SNB-78 CNS
SW-620 colon = test system: SW-620 colon
TK-10 renal = test system: TK-10 renal
U251 CNS = test system: U251 CNS
UACC-257 melanoma = test system: UACC-257 melanoma
UACC-62 melanoma = test system: UACC-62 melanoma
UO-31 renal = test system: UO-31 renal
XF 498 CNS = test system: XF 498 CNS
A498 renal = test system: A498 renal
ACHN renal = test system: ACHN renal
HCT-15 colon = test system: HCT-15 colon
HOP-18 NSCLC = test system: HOP-18 NSCLC
OVCAR-4 ovarian = test system: OVCAR-4 ovarian
SN12C renal = test system: SN12C renal
SNB-19 CNS = test system: SNB-19 CNS
SR leukemia = test system: SR leukemia
CAKI-1 renal = test system: CAKI-1 renal

Cc1c(Cl)cccc1NC(=O)C(=O)C(C(=O)c1ccccc1-c1ccccc1)C1OC(=O)c2ccccc21 (stereo unspecified)
TGI (786-0 renal): 33.3 µM | TGI (A549 NSCLC): 66.8 µM | TGI (CCRF-CEM leukemia): 96.9 µM | TGI (COLO 205 colon): 39.7 µM | TGI (DLD-1 colon): 49.1 µM | TGI (DMS 114 small cell lung): 43.5 µM | TGI (DMS 273 small cell lung): 77 µM | TGI (EKVX NSCLC): 59 µM | TGI (HCC-2998 colon): 31.2 µM | TGI (HCT-116 colon): 25 µM | TGI (HL-60(TB) leukemia): 49.8 µM | TGI (HOP-62 NSCLC): 35.5 µM | TGI (HOP-92 NSCLC): 34.4 µM | TGI (HT29 colon): > 100 µM | TGI (IGROV1 ovarian): > 100 µM | TGI (K-562 leukemia): > 100 µM | TGI (KM12 colon): 39.4 µM | TGI (KM20L2 colon): 51.4 µM | TGI (LOX IMVI melanoma): 39.5 µM | TGI (LXFL 529 NSCLC): 27.9 µM | TGI (M14 melanoma): 36.3 µM | TGI (M19-MEL melanoma): 34.8 µM | TGI (MALME-3M melanoma): 28.8 µM | TGI (MOLT-4 leukemia): 57.8 µM | TGI (NCI-H226 lung): 18.1 µM | TGI (NCI-H23 lung): 30.3 µM | TGI (NCI-H460 lung): 76.3 µM | TGI (NCI-H522 lung): 26.4 µM | TGI (OVCAR-3 ovarian): 33.8 µM | TGI (OVCAR-5 ovarian): 46.9 µM | TGI (OVCAR-8 ovarian): > 100 µM | TGI (RPMI-8226 leukemia): 59.1 µM | TGI (RXF 393 renal): 27.1 µM | TGI (RXF-631 renal): 71.6 µM | TGI (SF-268 CNS): 61.7 µM | TGI (SF-295 CNS): 45 µM | TGI (SF-539 CNS): 28.1 µM | TGI (SK-MEL-2 melanoma): 32.6 µM | TGI (SK-MEL-28 melanoma): 44.7 µM | TGI (SK-MEL-5 melanoma): 29.9 µM | TGI (SK-OV-3 ovarian): > 100 µM | TGI (SNB-75 CNS): 42.1 µM | TGI (SNB-78 CNS): > 100 µM | TGI (SW-620 colon): 49 µM | TGI (TK-10 renal): 57.6 µM | TGI (U251 CNS): 29.2 µM | TGI (UACC-257 melanoma): 46.8 µM | TGI (UACC-62 melanoma): 37.3 µM | TGI (UO-31 renal): 49.4 µM | TGI (XF 498 CNS): 29.3 µM

COC(=O)CCC(NC(=S)N/N=C(\C)c1cnc2ccccc2n1)C(=O)OC (stereo unspecified)
TGI (786-0 renal): > 100 µM | TGI (A498 renal): > 100 µM | TGI (A549 NSCLC): > 100 µM | TGI (ACHN renal): 89.2 µM | TGI (CCRF-CEM leukemia): 15.7 µM | TGI (COLO 205 colon): 5.37 µM | TGI (DLD-1 colon): > 100 µM | TGI (DMS 273 small cell lung): > 100 µM | TGI (EKVX NSCLC): > 100 µM | TGI (HCC-2998 colon): > 100 µM | TGI (HCT-116 colon): 38.6 µM | TGI (HCT-15 colon): > 100 µM | TGI (HL-60(TB) leukemia): 9.3 µM | TGI (HOP-18 NSCLC): > 100 µM | TGI (HOP-62 NSCLC): > 100 µM | TGI (HT29 colon): 31.3 µM | TGI (IGROV1 ovarian): > 100 µM | TGI (K-562 leukemia): > 100 µM | TGI (KM12 colon): 80.4 µM | TGI (KM20L2 colon): 46 µM | TGI (LOX IMVI melanoma): 66.3 µM | TGI (LXFL 529 NSCLC): > 100 µM | TGI (M14 melanoma): > 100 µM | TGI (MALME-3M melanoma): > 100 µM | TGI (MOLT-4 leukemia): 59.4 µM | TGI (NCI-H226 lung): > 100 µM | TGI (NCI-H23 lung): > 100 µM | TGI (NCI-H460 lung): > 100 µM | TGI (NCI-H522 lung): 38.2 µM | TGI (OVCAR-3 ovarian): > 100 µM | TGI (OVCAR-4 ovarian): > 100 µM | TGI (OVCAR-5 ovarian): 63.4 µM | TGI (OVCAR-8 ovarian): > 100 µM | TGI (RPMI-8226 leukemia): 36.8 µM | TGI (RXF 393 renal): 86 µM | TGI (RXF-631 renal): > 100 µM | TGI (SF-268 CNS): > 100 µM | TGI (SF-295 CNS): > 100 µM | TGI (SF-539 CNS): > 100 µM | TGI (SK-MEL-2 melanoma): > 100 µM | TGI (SK-MEL-28 melanoma): > 100 µM | TGI (SK-MEL-5 melanoma): 80.7 µM | TGI (SK-OV-3 ovarian): > 100 µM | TGI (SN12C renal): > 100 µM | TGI (SNB-19 CNS): > 100 µM | TGI (SNB-75 CNS): > 100 µM | TGI (SNB-78 CNS): > 100 µM | TGI (SR leukemia): 42.8 µM | TGI (SW-620 colon): > 100 µM | TGI (TK-10 renal): > 100 µM | TGI (U251 CNS): > 100 µM | TGI (UACC-257 melanoma): > 100 µM | TGI (UACC-62 melanoma): 38.5 µM | TGI (UO-31 renal): > 100 µM | TGI (XF 498 CNS): > 100 µM

Cc1cn(C2CC(O)C(COC(=O)c3ccccc3)O2)c(=O)[nH]c1=O (stereo unspecified)
TGI (786-0 renal): > 100 µM | TGI (A498 renal): > 100 µM | TGI (A549 NSCLC): > 100 µM | TGI (ACHN renal): > 100 µM | TGI (CAKI-1 renal): > 100 µM | TGI (CCRF-CEM leukemia): > 100 µM | TGI (COLO 205 colon): > 100 µM | TGI (DLD-1 colon): > 100 µM | TGI (DMS 273 small cell lung): > 100 µM | TGI (HCC-2998 colon): > 100 µM | TGI (HCT-116 colon): > 100 µM | TGI (HCT-15 colon): > 100 µM | TGI (HL-60(TB) leukemia): > 100 µM | TGI (HOP-18 NSCLC): > 100 µM | TGI (HOP-62 NSCLC): > 100 µM | TGI (HOP-92 NSCLC): > 100 µM | TGI (HT29 colon): > 100 µM | TGI (IGROV1 ovarian): > 100 µM | TGI (K-562 leukemia): > 100 µM | TGI (KM12 colon): > 100 µM | TGI (KM20L2 colon): > 100 µM | TGI (LOX IMVI melanoma): > 100 µM | TGI (LXFL 529 NSCLC): > 100 µM | TGI (M14 melanoma): > 100 µM | TGI (M19-MEL melanoma): > 100 µM | TGI (MALME-3M melanoma): > 100 µM | TGI (MOLT-4 leukemia): > 100 µM | TGI (NCI-H23 lung): > 100 µM | TGI (NCI-H460 lung): > 100 µM | TGI (NCI-H522 lung): > 100 µM | TGI (OVCAR-3 ovarian): > 100 µM | TGI (OVCAR-4 ovarian): > 100 µM | TGI (OVCAR-5 ovarian): > 100 µM | TGI (OVCAR-8 ovarian): > 100 µM | TGI (RPMI-8226 leukemia): > 100 µM | TGI (RXF 393 renal): > 100 µM | TGI (RXF-631 renal): > 100 µM | TGI (SF-295 CNS): > 100 µM | TGI (SF-539 CNS): > 100 µM | TGI (SK-MEL-28 melanoma): > 100 µM | TGI (SK-MEL-5 melanoma): > 100 µM | TGI (SN12C renal): > 100 µM | TGI (SNB-19 CNS): > 100 µM | TGI (SNB-78 CNS): > 100 µM | TGI (SR leukemia): > 100 µM | TGI (SW-620 colon): > 100 µM | TGI (TK-10 renal): > 100 µM | TGI (U251 CNS): > 100 µM | TGI (UACC-257 melanoma): > 100 µM | TGI (UACC-62 melanoma): > 100 µM | TGI (XF 498 CNS): > 100 µM
